| Compound | melting point |
| --- | --- |
| CCOC(=O)C(=NO)c1cnsn1 | 60 to 66 °C |
| N=C(N)NCCCCOc1ccc2c(c1)CC(CC(=O)O)C(=O)N2 (stereo not drawn) | 170 to 173 °C |
| COC(=O)C(C(=O)OC)C(Cc1cc(C(F)(F)F)ccc1[N+](=O)[O-])c1ccc(OC)cc1 (stereo not drawn) | 110 to 112 °C |
| CC(C)NC(=O)NC(C)(C)C(=O)NCCO[N+](=O)[O-] | 120 to 122 °C |
| Cc1cc(C(F)(F)F)n2nc(S(=O)(=O)Nc3c(Cl)cccc3Cl)nc2n1 | 237 to 239 °C |
| CCn1ncc2c(Cl)c(C(N)=O)cnc21 | 192 to 193 °C |
| CC(C(=S)c1cccc(NC=O)n1)S(C)=O (stereo not drawn) | 130 to 132 °C |
| CCCOc1n[nH]c(=O)n1C | 74 °C |
| CC1CCc2cc([N+](=O)[O-])cnc2C1 (stereo not drawn) | 55 to 56 °C |
| CCCCCS(=O)(=O)NC(=O)CCc1ccc(OCCCOC)cc1Oc1ncc(C(F)(F)F)cc1Cl | 115 °C |
| COc1cc(OC)c2c(=O)c(OC)c(-c3ccc(O)c(OC)c3)oc2c1 | 221 to 223 °C |
| CCN1CC(c2ccccc2)=C(OCCN2CCCCC2)C1=O | 120 °C |
| CCCCCCCCCCCCC1CC(=O)CCC1=O (stereo not drawn) | 73 °C |
| COC(=O)c1ccc(NC(=O)c2cc(C(C)C)c(C(C)C)s2)cc1F | 146 to 147 °C |
| NS(=O)(=O)c1ccc(CNC(=O)c2ccccc2SSc2ccccc2C(=O)NCc2ccc(S(N)(=O)=O)cc2)cc1 | 267 to 269 °C |
| Cc1ccc(S(=O)(=O)N2CC[C@@H](C(C#N)(c3ccccc3)c3ccccc3)C2)cc1 | 165 to 178 °C |
| O=C1O[C@@H](CO)CN1c1ccc(N2C[C@@H]3C[C@H]2CS3)c(F)c1 | 156 to 157 °C |
| CCCCCCCCc1cc2c(s1)NC(=O)CN=C2c1ccccc1Cl | 131 to 133 °C |
| O=CC(=Cc1ccc(Cl)cc1Cl)C1CCOCC1 | 82 to 85 °C |
| COc1ccc(-c2ocnc2-c2cc(OC)c([N+](=O)[O-])c(OC)c2)cc1O | 186 to 188 °C |

| Compound | melting point |
| --- | --- |
| Nc1cc(C(F)(F)C(F)(F)C(F)(F)C=CC(F)(F)C(F)(F)C(F)(F)c2ccc(O)c(N)c2)ccc1O | 187 to 188 °C |
| COCCNS(=O)(=O)c1ccc2[nH]c(=O)c(=O)[nH]c2c1 | 264 to 267 °C |
| CCC12CCC3C4CCC(=O)C=C4CCC3C1CCC2OCCN(C)C (stereo not drawn) | 87 to 88 °C |
| O=C(O)CCC(=O)OC1CCCN(C(=O)Cn2c(=O)sc3ccc(Cl)cc32)C1 (stereo not drawn) | 131 to 133 °C |
| Cc1ccc2c(Sc3cc(Cl)cc(Cl)c3)c(CCC(N)=O)[nH]c2c1 | 152 °C |
| COc1cc2c(cc1OC)C(=O)C(=Cc1cc(C)c([N+](=O)[O-])c(C)c1)C2 | 242 to 243 °C |
| COC1(OC)C(=O)NC(Nc2ncnc3c2ncn3C2OC(CO)C(O)C2O)C1Cl (stereo not drawn) | 110 to 120 °C |
| COC(=O)C1=C(C)NC(C)=C(C(=O)OCCN2CCN(C(c3ccccc3)c3ccccc3)CC2)C1c1ccco1 (stereo not drawn) | 71 to 77 °C |
| OC1CSC(Oc2cccc3conc23)C(O)C1O (stereo not drawn) | 115 °C |
| CC(C)(C)C(=NO)C(C)(C)CCCCCCC(C)(C)C(=NO)C(C)(C)C | 203 to 209 °C |
| CCC1(CCCCCl)C(=O)Nc2ccc(Cl)cc21 (stereo not drawn) | 116 to 117 °C |
| COC(=O)c1nc2cc(Cl)c(OC)c(Cl)c2c(O)c1C(=O)OC | 210 to 211 °C |
| CCCC1c2c(ccc(C(C)=O)c2O)OC1COc1ccc(CC(=O)O)cc1 (stereo not drawn) | 104 to 106 °C |
| CN(C)C(=O)c1ccc(F)c2c1CC(N(CCCc1c[nH]c3ccc(F)cc13)C1CCC1)CO2 (stereo not drawn) | 126 °C |
| COc1cn(C)c(=O)c(O)n1 | 201 to 204 °C |
| CCCOc1cc2c(cc1C=O)C(C)(C)CCC2(C)C | 51 to 52 °C |
| CCC(CC)N(C[C@@H]1CCC[C@H](CN(C(=O)Nc2ccc(N(C)C)cc2)C(CC)CC)C1)C(=O)Nc1ccc(N(C)C)cc1 | 157 to 160 °C |
| CCNc1ccc(-c2c(N)nc(N)nc2CC)cc1[N+](=O)[O-] | 275 to 276 °C |
| CC(C)(C)c1cc(OCCCCCCC(=O)O)cc(C(C)(C)C)c1 | 88 to 90 °C |
| CC12CCC(=O)C=C1CCC1C2CCC2(C)C(OC(=O)CCl)CCC12 (stereo not drawn) | 125 to 126 °C |

Further lines, results first:

| melting point | Compound |
| --- | --- |
| 101 °C | CSc1ccc2ncn(CCN3CCC(Nc4nc5ccccc5n4Cc4ccc(F)cc4)CC3)c(=O)c2c1 |
| 92 to 100 °C | CCc1cc(C2(c3ccc(F)c(-c4cnccc4F)c3)N=C(N)N(C)C2=O)cc(CC)n1 (stereo not drawn) |
| 259 to 262 °C | Fc1ccc(-c2cc3ccccc3[nH]c2=S)cc1 |
| 213 to 215 °C | Cc1nc2c(OCc3ccccc3)cc(CO)cn2c1C |
| > 260 °C | Nc1ccc(CCNC(=O)Nc2ccc(Nc3ccccc3)cc2)cc1 |
| 166 to 168 °C | BrCc1ccc(-c2ccc(CBr)cc2)cc1 |
| 146 to 151 °C | COc1cccc(Oc2ccc([N+](=O)[O-])c(C(=O)O)c2)c1 |
| 64 to 66 °C | N#CCCc1cccc(O)c1 |
| 157 to 158 °C | COc1cc(-n2nc(C(F)(F)F)cc2-c2ccc(S(C)(=O)=O)cc2)ccc1Cl |
| 49 to 51 °C | Cc1cccc(Cl)c1CC#N |
| 56 to 58 °C | Cc1oc2c(C=O)cccc2c1C |
| 121 °C | Cc1ccc2c(c1)c(N1CCNCC1)c(C#N)c(=O)n2Cc1ccc(F)cc1 |
| 37.5 to 38.5 °C | O=C(Oc1cccc(F)c1)c1ccccc1F |
| 106 to 108 °C | Nc1ncccc1CCc1ccccc1 |
| 156 to 159 °C | ClCC=C(c1ccc(Br)cc1)c1cccnc1 |
| 164 to 167 °C | COC(=O)c1ccc2c(-c3cccc(OC)c3)nc(=O)n(C(C)C)c2c1 |
| 192 °C | N#Cc1ccc(-c2cncc(OC3SCC(O)C(O)C3O)c2)cc1C#N (stereo not drawn) |

| melting point | Compound |
| --- | --- |
| 240 to 242 °C | COCC(O)Cc1ccc(-c2ccc3cc(C(=O)O)ccc3c2)cc1C12CC3CC(CC(C3)C1)C2 (stereo not drawn) |
| 185 °C | CN(C)C=CC(=O)c1ccc(OCC(O)CN2CCN(c3ccc(Cl)cc3)CC2)cc1 (stereo not drawn) |
| 131 to 132 °C | COc1ccc(OC2COc3ccc(OCc4ccc5ccccc5n4)cc3C2O)cc1 (stereo not drawn) |
| 218 to 221 °C | COC(=O)c1ccc2oc(=S)[nH]c2c1 |
| 83 to 85 °C | CCOC(=O)N1C=CC(c2ccc(F)cc2)C(C(=O)OC)=C1 (stereo not drawn) |
| 135 to 136 °C | BrCCOc1ccc2[nH]c3ccccc3c2c1 |
| 96 to 97 °C | O=C(C=Cc1cccc(F)c1)C=Cc1cccc(F)c1 |
| 260 to 262 °C | O=C(O)c1cc2ccccc2c(=O)s1 |
| 72 to 75 °C | CC(C#N)CC(=O)c1cccc(Cl)c1 (stereo not drawn) |
| 174 to 178 °C | Nc1nc(=O)n(S(=O)(=O)c2ccc(Cl)cc2)cc1F |
| 189 to 191 °C | COc1ccc(-c2nc3sccn3c2/C=C/C(=O)c2ccc3c(c2)OCO3)cc1 |
| 83 to 84 °C | COc1ccc(Br)c(COc2cccc3cc(OC)ccc23)c1 |
| 204 to 206 °C | COc1ccc(S(=O)(=O)Nc2cccc(C)c2NC(=O)c2ccc(F)cc2)cc1 |
| 224 °C | Cc1cc(Nc2ccnc(Nc3ccc(S(=O)(=O)N(C)C4CCN(Cc5cn[nH]c5)CC4)cc3)n2)ccc1F |
| 202 to 203 °C | Cc1c(NC(=O)c2ccc(-c3cc4ccccc4o3)cc2F)ccc2cc(CN3CCCC3)cnc12 |
| 81 to 83 °C | C=CCC1C(=O)N(Cc2ccccc2)c2ccccc2NC1C (stereo not drawn) |

Source: a melting point compilation (Tetko et al.; mined from patent text by program, amines drawn as free bases though some values may be those of a salt)
